The target in data set [1] is T1, human serum albumin (HSA) (Homo sapiens, UniProt P02768).
T1 construct: purchased H13H-2433
The data set can be described thus: HSA binding by high performance affinity chromatography (HPAC). Type of data set: in vitro ADME. Conditions: affinity to HSA by affinity chromatography (Chiralpak HSA column). As for the experimental part: For the determination of binding to human serum albumin (HSA) using HPLC, a Chiralpak HSA column (50 × 3 mm, 5 μm, H13H-2433) was used at a constant flow rate of 0.5 ml/min. The mobile phase (A: NH4OAc, 50 mM in H2O, pH 6.9 and B: iPrOH) was freshly prepared for each day.

A short description of data set [2]: Lipophilicity LogDpH=7.4, shake flask method. Type of data set: physicochemical. Conditions: PBS (pH = 7.4)/n-octanol. The method, then: The LogDpH=7.4 was determined using a modified shake flask method as previously described.
Another data set concerns AR42J cells. Kind of data set: Internalization into AR42J cells relative to [125I]TOC. The settings on record: percentage compared to internal reference [125I]TOC. Type of data set: cell-based. The method, then: AR42J cells (European Collection of Cell Cultures, Salisbury, UK) were grown in RPMI 1640 medium (with 2 mM, L-Glu, 10% FCS; v/v, 37 °C, 5% CO2), harvested 24 ± 2 h and seeded in 24-well poly-L-lysine plates (2.0 × 10^5 cells/well in 1 ml culture medium). After removal of the medium, the cells were washed with assay medium (300 µl, RPMI 1640 with 2 mM L-Glu, 5% BSA; v/v) and incubated in assay medium (200 µl, 15 min, 37 °C, 5% CO2). 25 µl of the ^18F-labeled ligand (20 nM) and [^125I]TOC (1 nM) in assay medium were added followed by either 25 µl TOC in assay medium (100 µM, competition experiment) or 25 µl of assay medium (internalization experiment). Cells were incubated at 37 °C for 15, 30, and 60 min (n = 3 per compound and time point), respectively, and chilled on ice. The supernatant was collected, the well washed with ice-cold RPMI 1640 (300 µl), and the two fractions combined (unbound ligand). The cells were incubated with acid wash solution (300 µl, 0.9% NaCl, 50 mM NaOAc/AcOH buffer, pH = 4.6, 15 min, 4 °C) to remove receptor-bound radioligand. The supernatant was collected, and the cells washed with 300 µl ice-cold acid wash solution (combined fractions: acid releasable, receptor bound ligand). The cells were lysed with NaOH solution (300 µl, 1 M, 15 min, RT), washed with 300 µl of the same solution, the two fractions combined (internalized ligand), and all activities quantified using a γ-counter.

The nature of data set [3]: Biodistribution 1 h p.i. in AR42J xenograft bearing CD1 nu/nu mice. Type of data set: in vivo. The settings on record: female, mouse, intravenous, total radioactivity, average ± Stdev. The method, then:
The 8-week-old female CD1 nu/nu mice were purchased from Charles River (Sulzfeld, Germany). Animal experiments were conducted according to general animal welfare regulations (German animal protection act, as amended on 18.05.2018, Art. 141 G v. 29.3.2017 I 626, approval no. 55.2-1.2-54–2532-71-13 by the General Administration of the Free State of Bavaria; Swiss animal welfare regulations: Animal Welfare Act SR 455, license: Canton de Vaud, 3781 d). To establish tumor xenografts, AR42J cells (5 × 10^6 cells in 100 µl serum-free culture medium) were inoculated subcutaneously onto the shoulder. Mice were used for experiments when tumors had grown to a diameter of 5–9 mm (7–15 days after inoculation).
Approximately 0.5–2.5 MBq (0.05–0.20 nmol) of the ^18F-labeled ligands were injected into the tail vein of AR42J xenograft-bearing mice under isoflurane anesthesia (1.5% alveolar concentration). The mice were sacrificed 1 h post injection (n = 3–5). Organs were removed, weighed, and the activity quantified (γ-counter).
An unpaired Welch’s t-test was applied using the GraphPad Prism software (version 10.1.2). Standard deviations for tumor-to-organ (T/O) ratios were calculated using the rules of error propagation. Thresholds for statistical significance are defined as: p > 0.05 (ns); p ≤ 0.05 (*); p ≤ 0.01 (**); p ≤ 0.001 (***); p ≤ 0.0001 (****).

Here are results for six compounds from PMC12920295, “Novel radiohybrid PET-Tracers for SST2-targeted imaging of neuroendocrine tumors” (European Journal of Nuclear Medicine and Molecular Imaging, 2025).

Where two headings read alike, the source gives them in different places.

T1 sequence (P02768 25-609): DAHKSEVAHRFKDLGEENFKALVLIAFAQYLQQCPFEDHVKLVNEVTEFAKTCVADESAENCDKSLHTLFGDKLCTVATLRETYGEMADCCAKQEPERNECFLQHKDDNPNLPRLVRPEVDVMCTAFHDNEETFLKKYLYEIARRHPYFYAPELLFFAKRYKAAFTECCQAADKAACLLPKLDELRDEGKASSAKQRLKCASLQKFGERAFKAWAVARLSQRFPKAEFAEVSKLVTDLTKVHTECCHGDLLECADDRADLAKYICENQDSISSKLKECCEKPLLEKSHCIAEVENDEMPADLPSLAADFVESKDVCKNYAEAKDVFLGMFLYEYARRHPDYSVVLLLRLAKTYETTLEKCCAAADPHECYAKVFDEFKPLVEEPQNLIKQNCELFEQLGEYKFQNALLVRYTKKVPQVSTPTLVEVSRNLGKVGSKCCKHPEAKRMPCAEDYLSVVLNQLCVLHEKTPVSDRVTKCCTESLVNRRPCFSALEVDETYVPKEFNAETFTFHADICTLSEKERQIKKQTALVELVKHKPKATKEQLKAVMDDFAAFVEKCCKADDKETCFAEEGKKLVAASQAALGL

With `C[C@@H](O)[C@H](NC(=O)[C@@H]1CSSC[C@H](NC(=O)[C@@H](Cc2ccccc2)NC(=O)CN2CCN(CC(=O)O)CCN(CC(=O)NCCCC[C@@H](NC(=O)[C@@H](CNC(=O)C[N+](C)(C)Cc3ccc([Si](F)(C(C)(C)C)C(C)(C)C)cc3)NC(=O)[C@@H](CCCNC(N)=O)NC(=O)[C@@H](CCCNC(N)=O)NC(=O)[C@H](N)CCCNC(N)=O)C(=O)O)CCN(CC(=O)O)CC2)C(=O)N[C@@H](Cc2ccc(O)cc2)C(=O)N[C@H](Cc2c[nH]c3ccccc23)C(=O)N[C@@H](CCCCN)C(=O)N[C@@H]([C@@H](C)O)C(=O)N1)C(=O)O` [[^18/natF][^natGa]rhTATE2.1, metal not drawn], the “HSA HPAC” value in data set [1] amounted to 98.8%. The “LogDpH=7.4” value in data set [2] (mean of n = 8) is on record as −2.27. In addition, in the data set on AR42J cells, the Internalization is 536%.
With `C[C@@H](O)[C@H](NC(=O)[C@@H]1CSSC[C@H](NC(=O)[C@@H](Cc2ccccc2)NC(=O)CN2CCN(CC(=O)O)CCN(CC(=O)NCCCC[C@@H](NC(=O)[C@@H](CNC(=O)C[N+](C)(C)Cc3ccc([Si](F)(C(C)(C)C)C(C)(C)C)cc3)NC(=O)[C@@H](CCCNC(N)=O)NC(=O)[C@@H](CCCNC(N)=O)NC(=O)[C@H](N)CCC(=O)O)C(=O)O)CCN(CC(=O)O)CC2)C(=O)N[C@@H](Cc2ccc(O)cc2)C(=O)N[C@H](Cc2c[nH]c3ccccc23)C(=O)N[C@@H](CCCCN)C(=O)N[C@@H]([C@@H](C)O)C(=O)N1)C(=O)O` [[^18/natF][^natGa]rhTATE2.2, metal not drawn], the “HSA HPAC” value in data set [1] is given as 94.3%. Besides, the “LogDpH=7.4” value in data set [2] (mean of n = 8) is on record as −2.30. The Internalization in the data set with AR42J cells turned out to be 550%. The tissue uptake at 1 h in data set [3] (adrenal glands, AR42J tumor-bearing CD1 nu/nu mice, read-out: Biodistribution Adrenal Glands) is 4.35 ± 0.69 %ID/g; in data set [3] (blood, AR42J tumor-bearing CD1 nu/nu mice, read-out: Biodistribution Blood), 0.39 ± 0.19 %ID/g; in data set [3] (femur, AR42J tumor-bearing CD1 nu/nu mice, read-out: Biodistribution Femur), 1.7 ± 0.45 %ID/g; in data set [3] (heart, AR42J tumor-bearing CD1 nu/nu mice, read-out: Biodistribution Heart) it was 0.33 ± 0.01 %ID/g; in data set [3] (intestine, AR42J tumor-bearing CD1 nu/nu mice, read-out: Biodistribution Intestine) it was 2.87 ± 0.15 %ID/g; in data set [3] (kidney, AR42J tumor-bearing CD1 nu/nu mice, read-out: Biodistribution Kidney) it was 32.6 ± 3.5 %ID/g. In addition, the tissue uptake at 1 h was 2.43 ± 0.36 %ID/g in data set [3] (liver, AR42J tumor-bearing CD1 nu/nu mice, read-out: Biodistribution Liver); 6.29 ± 0.65 %ID/g in data set [3] (lung, AR42J tumor-bearing CD1 nu/nu mice, read-out: Biodistribution Lung); 0.06 ± 0.01 %ID/g in data set [3] (muscle, AR42J tumor-bearing CD1 nu/nu mice, read-out: Biodistribution Muscle); 31.5 ± 2.32 %ID/g in data set [3] (pancreas, AR42J tumor-bearing CD1 nu/nu mice, read-out: Biodistribution Pancreas); 1.31 ± 0.2 %ID/g in data set [3] (spleen, AR42J tumor-bearing CD1 nu/nu mice, read-out: Biodistribution Spleen); 13.4 ± 1.6 %ID/g in data set [3] (stomach, AR42J tumor-bearing CD1 nu/nu mice, read-out: Biodistribution Stomach). Besides, the tissue uptake at 1 h in data set [3] (tumor (AR42J xenograft), AR42J xenograft, CD1 nu/nu mice, read-out: Biodistribution Tumor) worked out at 27.9 ± 4.78 %ID/g.
As for `C[C@@H](O)[C@H](NC(=O)[C@@H]1CSSC[C@H](NC(=O)[C@@H](Cc2ccccc2)NC(=O)CN2CCN(CC(=O)O)CCN(CC(=O)NCCCC[C@@H](NC(=O)[C@@H](CNC(=O)C[N+](C)(C)Cc3ccc([Si](F)(C(C)(C)C)C(C)(C)C)cc3)NC(=O)[C@@H](CN)NC(=O)[C@@H](CCC(=O)O)NC(=O)[C@H](N)CCC(=O)O)C(=O)O)CCN(CC(=O)O)CC2)C(=O)N[C@@H](Cc2ccc(O)cc2)C(=O)N[C@H](Cc2c[nH]c3ccccc23)C(=O)N[C@@H](CCCCN)C(=O)N[C@@H]([C@@H](C)O)C(=O)N1)C(=O)O` [[^18/natF][^natGa]rhTATE2.3, metal not drawn], in data set [1], the “HSA HPAC” value was found to be 96.0%. In addition, the “LogDpH=7.4” value in data set [2] (mean of n = 8) is −2.12. The compound further displayed an Internalization in the data set with AR42J cells of 619%.
For the compound `C[C@@H](O)[C@H](NC(=O)[C@@H]1CSSC[C@H](NC(=O)[C@@H](Cc2ccccc2)NC(=O)CN2CCN(CC(=O)O)CCN(CC(=O)NCCCC[C@@H](NC(=O)[C@@H](CNC(=O)C[N+](C)(C)Cc3ccc([Si](F)(C(C)(C)C)C(C)(C)C)cc3)NC(=O)[C@@H](CCCCN)NC(=O)[C@@H](CCC(=O)O)NC(=O)[C@H](N)CCC(=O)O)C(=O)O)CCN(CC(=O)O)CC2)C(=O)N[C@@H](Cc2ccc(O)cc2)C(=O)N[C@H](Cc2c[nH]c3ccccc23)C(=O)N[C@@H](CCCCN)C(=O)N[C@@H]([C@@H](C)O)C(=O)N1)C(=O)O` [[^18/natF][^natGa]rhTATE2.4, metal not drawn], in data set [1], the “HSA HPAC” value is recorded as 92.7%. Also, the “LogDpH=7.4” value in data set [2] (mean of n = 8) is given as −2.28. Also, the Internalization with AR42J cells was 841%.
`C[C@@H](O)[C@H](NC(=O)[C@@H]1CSSC[C@H](NC(=O)[C@@H](Cc2ccccc2)NC(=O)CN2CCN(CC(=O)O)CCN(CC(=O)NC[C@@H](NC(=O)C[N+](C)(C)Cc3ccc([Si](F)(C(C)(C)C)C(C)(C)C)cc3)C(=O)O)CCN(CC(=O)O)CC2)C(=O)N[C@@H](Cc2ccc(O)cc2)C(=O)N[C@H](Cc2c[nH]c3ccccc23)C(=O)N[C@@H](CCCCN)C(=O)N[C@@H]([C@@H](C)O)C(=O)N1)C(=O)O` [[^nat/18F][^natGa]rhTATE1, N-SiFAlin-N, N-Me2-Gly-D-Dap(trans-[^natGa]DOTA-TATE), metal not drawn]: in data set [1], the “HSA HPAC” value is 95.4%. The “LogDpH=7.4” value in data set [2] (mean of n = 8) is recorded as −1.03; in data set [2] (mean of n = 8, listed as [^natGa]rhTATE1), -1.03.
Turning to `C[C@@H](O)[C@H](NC(=O)[C@@H]1CSSC[C@H](NC(=O)[C@@H](Cc2ccccc2)NC(=O)CN2CCN(CC(=O)O)CCN(CC(=O)NCCCC[C@@H](NC(=O)C[N+](C)(C)Cc3ccc([Si](F)(C(C)(C)C)C(C)(C)C)cc3)C(=O)O)CCN(CC(=O)O)CC2)C(=O)N[C@@H](Cc2ccc(O)cc2)C(=O)N[C@H](Cc2c[nH]c3ccccc23)C(=O)N[C@@H](CCCCN)C(=O)N[C@@H]([C@@H](C)O)C(=O)N1)C(=O)O` [[^nat/18F][^natGa]rhTATE2, N-SiFAlin-N, N-Me2-Gly-D-Lys(trans-[^natGa]DOTA-TATE), metal not drawn], the “HSA HPAC” value in data set [1] is on record as 94.5%. Moreover, the “LogDpH=7.4” value in data set [2] (mean of n = 8) was −1.19.
